Earlier results, collected in US6623763B2, “Pharmaceutical preparation adhering to the skin, in particular a transdermal therapeutic system for the release of 17-β-estradiol to the human organism” (LTS Lohmann Therape-System AG, priority 1996, dated 2003).

How the values were obtained:
[1] = tested on: Alzheimer's and Parkinson's disease; conditions: uniform supply of estradiol

| temperature of short-term heat treatment without decomposition | Compound | efficacy for prophylaxis of Alzheimer's and Parkinson's disease [1] |
| --- | --- | --- |
| up to 170 °C | C[C@]12CC[C@@H]3c4ccc(O)cc4CC[C@H]3[C@@H]1CC[C@@H]2O [17-β-estradiol semihydrate, 17-β-estradiol-semihydrate] |  |
|  | C[C@]12CC[C@@H]3c4ccc(O)cc4CC[C@H]3[C@@H]1CC[C@@H]2O [17-β-estradiol] | effective |
